Assay results reported in patent US20250092360A1, “METHODS AND COMPOSITIONS FOR GENERATING SOMATOSTATIN+ INTERNEURONS FROM HUMAN FOREBRAIN NEURAL PROGENITOR CELLS” (Trailhead Biosystems Inc., priority 2023, published 2025).
“Also recorded” adds a separate entry of the source.

Assays:
[1] = system: human pluripotent stem cells; assay: HD-DoE stage 1, first 12-factor experiment: gene expression (qPCR) after 3-day treatment; type: cell-based; conditions: for impact on expression of OTX2: dynamic profile / model; for factor contribution, expression of SIX3 / factor contribution, expression of FEZF2: positive impact; for factor contribution, expression of SIX3: model optimized for maximal SIX3, 3-day treatment, qPCR; for factor contribution, expression of FEZF2: model optimized for maximum FEZF2 at 3576
Description: This example utilizes a method of High-Dimensional Design of Experiments (HD-DoE), as previously described in Bukys et al. (2020) […] 23:101346. The method employs computerized design geometries to simultaneously test multiple process inputs and offers mathematical modeling of a deep effector/response space. The method allows for finding combinatorial signaling inputs that control a complex process, such as during cell differentiation. It allows testing of multiple plausible critical process parameters, as such parameters impact output responses, such as gene expression. Because gene expression provides hallmark features of the phenotype of, for example, a human cell, the method can be applied to identify, and understand, which signaling pathways control cell fate. In the current example, the HD-DOE method was applied with the intent to find conditions for induction of […] neural progenitor-expressed genes, directly from the pluripotent stem cell state. To develop the recipe for each stage, the impact of agonists and antagonists of multiple signaling pathways (herein called effectors) on the expression of two sets of 53 pre-selected genes, after a 3-day treatment, has been tested and modeled. These effectors are small molecules or proteins that are commonly used during stepwise differentiation of stem cells to specific fates. Choice of the effectors were based on current literature on neural induction in forebrain region of developing brain and differentiation of stem cells to neural progenitors. To test the effectors, experiments with at least 8 factors were designed that can assess the response of cells to 48 or more different combinations of effectors in a range of concentrations. To analyze the models, we focused on expression of genes involved in development and patterning of the anterior neuroectoderm and forebrain including OTX2 (Hoch et al. (2015) Cell Reports 12:482-494), SIX3 (Lagutin et al. (2003) Genes & Development 17:368-379) and FEZF2 (Zhang et al. (2014) Development 141:4794-[…]). At later stages we focused on dorsoventral patterning of telencephalon and gene expressed in ventral forebrain including NKX2-1 and absence of PAX6 which is a dorsal forebrain marker (Stoykova et al. (2000) J. Neurosci. 20:8042-8050). The impact of each effector on gene expression level is defined by a parameter called factor contribution that is calculated for each effector during the modeling. To identify the recipe for stage 1 of differentiation, 96 different combinations of effectors generated using Design-of-Experiments compression through D-optimality were robotically prepared. The effector combinations were prepared in a basal media and were subsequently added to the cells, which were then allowed to differentiate. Three days later RNA extraction was performed, and gene expression was obtained using quantitative PCR analysis. The data were normalized and modeled using partial least squares regression analysis to the effector design, resulting in the generation of gene-specific models, which after model tuning for maximal Q2 predictive power, provided explanation of the effectors ability to control the expression of individual genes, combinatorically, and individually. Solutions within the tested space could then be explored to address desirability. Optimizing for maximal expression of SIX3 at 3300 and FEZF2 1355 expression values led to robust solutions. This model was derived from testing 12 effectors including AGN193109, LDN193189, CHIR99021, XAV939, IGF2, Purmorphamine, 4-oxo-RA, TTNPB, SR11237, FGF8, PD0325901 and […]. […] The model was also optimized for maximum expression of FEZF2 separately at 3576 expression value to find any additional factors that can boost expression of forebrain genes. […] To find the set of factors that have the potential to optimize all 3 genes in this experiment, a new assessment was done through dynamic profile analysis with focus on maximal expression of OTX2, FEZF2 and SIX3.

[2] = system: forebrain-committed neural stem cells; assay: HD-DoE stage 2, 12-factor experiment: NKX2-1 expression; type: cell-based, human; conditions: model / dynamic profile, in words
In short: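 Forebrain-committed neural stem cells were treated for 3 days after stage 1 in a 12-factor high-dimensional DoE (LDN193189, BMP7, PD0325901, MK2206, A8301, XAV939, CHIR99021, purmorphamine, SANT-1, AGN193109, TTNPB, GSI-XX) to drive ventral forebrain identity. The read-out was NKX2-1 expression. Dynamic profile modelling also targeted minimal PAX6 and NKX2-2.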

[3] = system: human pluripotent stem cells; assay: Factor criticality analysis, stage 1 recipe (dynamic profile analysis); type: cell-based; conditions: other five stage 1 factors present, FIG. 11; for expression level of FEZF2 when the factor is removed: 2000 with all six factors; for expression level of SIX3 when the factor is removed: 3000 with all six factors; for expression level of OTX2 when the factor is removed: 5500 with all six factors
Description: To assess the impact of the elimination of each validated factor, dynamic profile analysis was used and compared the expression level of genes of interest in absence of each finalized factor while others are present. […] When Purmorphamine was removed, levels of FEZF2 and SIX3 were decreased to 1000 and below 3000, while levels of OTX2 increased to 6500.

[4] = system: forebrain-committed neural stem cells; assay: Factor criticality analysis, stage 2 recipe; type: cell-based, human; conditions: for expression level of PAX6 when the factor is removed / expression level of NKX2-2 when the factor is removed / expression level of NKX2-1 when the factor is removed: other three stage 2 factors present; for expression level of PAX6 when the factor is removed: 0 with all four factors; for expression level of NKX2-2 when the factor is removed: 100 with all four factors; for expression level of NKX2-1 when the factor is removed: 5000 with all four factors
Experimental: To assess the impact of the elimination of each validated factor, dynamic profile analysis was used and compared the expression level of genes of interest in absence of each finalized factor while others are present.
In the stage 2 recipe, each of the four finalized factors were removed while the other three factors remained present and expression levels of NKX2-1, PAX6 and NKX2-2 were assessed compared to presence of all four factors. Absence of PD0325901 reduced the levels of NKX2-1 and NKX2-2 while increasing PAX6 from 5000 to 3200, 100 to 0 and 0 to 5000, respectively. […] Removing XAV939 reduced the levels of NKX2-1 from 5000 to 3000, while increasing both PAX6 and NKX2-2 to 10000 and 200, respectively. Another observation was the interaction between XAV939 and Purmorphamine. In the absence of XAV939, the impact of Purmorphamine on NKX2-1 became negative and, as it is shown in interaction plot of FIG. 14, the level of NKX2-1 is higher when both factors are present.

[5] = dynamic profile analysis, in words

| SMILES | factor contribution, important input for high expression of SIX3 ([1]; FIG. 2 legend) | impact on expression of OTX2 ([1]; in words) | factor contribution, expression of OTX2 ([1]; positive effector, model optimized for maximum OTX2 at 6348) | factor contribution, expression of SIX3 [1] | factor contribution, expression of FEZF2 [1] | impact on expression of NKX2-1 [2] | expression level of FEZF2 when the factor is removed [3] | expression level of SIX3 when the factor is removed [3] | expression level of OTX2 when the factor is removed [3] | expression level of PAX6 when the factor is removed [4] | expression level of NKX2-2 when the factor is removed [4] | expression level of NKX2-1 when the factor is removed [4] | impact on expression of FEZF2 [1, 5] | impact on expression of SIX3 [1, 5] | impact on NKX2-1 in the absence of XAV939 ([4]; interaction plot FIG. 14) |
| --- | --- | --- | --- | --- | --- | --- | --- | --- | --- | --- | --- | --- | --- | --- | --- |
| c1ccc2c(-c3cnn4cc(-c5ccc(N6CCNCC6)cc5)cnc34)ccnc2c1 [LDN193189] | 24.9 | positive impact | 8 | 16 | 25 | increase | 1000 | 0 | 4000 | below 0 | below 0 | did not significantly change |  |  |  |
| O=C(NOC[C@H](O)CO)c1ccc(F)c(F)c1Nc1ccc(I)cc1F [PD0325901] |  | positive impact |  |  | 10 | increase; also recorded: Positive impact | drop | did not have a significant impact | did not have a significant impact | 5000 | 0 | 3200 |  |  |  |
| c1ccc2c(Oc3nc(Nc4ccc(N5CCOCC5)cc4)c4ncn(C5CCCCC5)c4n3)cccc2c1 [Purmorphamine] |  | negative effect |  | 5 | 7 | increase | 1000 | below 3000 | 6500 |  |  |  | positive impact | positive impact | negative |
